Laboratory results: patent US7361459B2, “Antiviral inhibition of capsid proteins” (University of Maryland, Baltimore County, priority 2002, dated 2008)
Where two headings read alike, the source gives them in different places.

Assays:
[1] = test system: HIV-1RF; experiment: Virus particle infectivity and RT activity from infected MAGI cell cultures; type: cell-based
Experimental: (§1) U1 cells (5×10^5 cells/ml) were mixed with TNF-α (10 ng/ml, Sigma) for activation of HIV virion production and treated with CAP-1 at different concentrations. Cultures were harvested 72 hours after treatment. Cell viability was measured using the MTS cell proliferation assay (CellTiter 96 Aqueous One Solution Cell Proliferation Assay, Promega, Madison, Wis.). Supernatants were collected, the cell debris removed by low speed centrifugation, and the particles in the supernatants pelleted by microcentrifugation. Infectious units associated with the particles were measured as described in Kimpton, et al., Detection of replication-competent and pseudotyped HIV with a sensitive cell line on the basis of activation of an integrated β-galactosidase gene, J. Virol. 66: 2232-39, 1992, except that β-gal activities were measured using a Tropix Gal-Screen detector system (Applied Biosystems, Foster City, Calif.). Particle-associated RT activities were determined as described in Huang, et al., p6Gag is required for particle production from full length human immunodeficiency virus type 1 molecular clones expressing protease, J. Virol., […]: 6810-18, 1995. Cell lysates and pelleted particles were subjected to SDS-PAGE analysis using AIDS patient sera (AIDS Research and Reference Regent Program, NIAID, NIH). Quantitative p24 (CA) assays were performed with the HIV-1 p24 Antigen Capture ELISA kit (AIDS vaccine program, FCRDC/SAIC/NCI, Frederick, Md.). MAGI cells were washed after viral adsorption (HIV-1RF) with PBS and were fed fresh media containing CAP-1 at various concentrations. 72 hours post-infection, the culture supernatants were harvested and pre-cleared. Virus particles present on the supernatants were collected by microcentrifugation and particle-associated RT activity and infectivity were subsequently measured.

[2] = test system: Gag polyprotein; experiment: p24 (CA) Western blot of Gag and its cleavage products, U1 cells; type: cell-based, HIV-1
Experimental: as §1, with “72 hours post-infection, the culture supernatants were harvested and pre-cleared.” left out
(§2) To determine if CAP-1 affects viral gene expression and particle production, reverse transcriptase (RT) activity and CA (p24) levels were measured for the supernatants after pelleting and removal of the cells. […] Quantitation of gp120 was also obtained for the supernatant using antibodies against gp120.

[3] = test system: HIV-1 capsid core assembly; type: cell-based; settings: particles from treated U1 cells
Experimental: Treated (CAP-1) and untreated virus-producing U1 cells were pelleted, washed in phosphate-buffered saline (PBS) and resuspended in at least ten cell pellet volumes of fixative (100 mM sodium cacodylate, pH 7.2, 2.5% glutaraldehyde, 1.6% paraformaldehyde, 0.5% picric acid). Cells were fixed for 24-48 hours, after which fixative was removed and cells were washed twice in PBS and pelleted in eppendorf centrifuge tubes. Washed cell pellets were post-fixed one hour in 1% osmium tetroxide plus 0.8% potassium ferricyanide in 100 mM sodium cacodylate, pH 7.2. After thorough rinsing in water, cells were pre-stained in 4% uranyl acetate one hour, thoroughly rinsed, dehydrated, infiltrated overnight in 1:1 acetone:Epon 812, infiltrated one hour with 100% Epon 812 resin, and embedded in the resin. After polymerization, 60-80 nm thin sections were cut on a Reichert untramicrotome, stained 5 minutes in lead citrate, rinsed, post-stained 30 minutes in uranyl acetate, rinsed and dried. EM was performed at 60 kV on a Philips CM120/Biotwin equipped with a 1024×1024 Gatan multiscan CCD, and images were collected at original magnifications of 25,880×-36,960×, corresponding t resolutions of 8.9 and 6.5 Å/pixel, respectively. For each sample, 4 separate EM grids were viewed, and at least 47 were collected, corresponding to a minimum total area of 35 micron^2.

[4] = molecular target: HIV-1 CA (Human immunodeficiency virus type 1 group M subtype B, UniProt P12493); settings: for initial assembly rate: 350 nm, 21° C., no compound 204±36
Experimental: Turbidity assays were performed at 21° C. using a Beckman DU650 spectrophotometer operating at 350 nm wavelength. Concentrated ligand in DMSO (0.2 μl) was added to a 250 μl aqueous solution containing the capsid protein ([CA]=60 μM; [NaH2PO4]=50 mM; pH 8.0). Particulates were removed by centrifugation, and capsid assembly was initiated by addition of a concentrated NaCl solution (5 M, 250 μl). Spectral measurements were made every 10 s, following a short initial delay to allow sample equilibration. Relative assembly rates were estimated from initial slopes of the plots of absorbance vs. time.
Tube formation leads to increases in sample turbidity that can be monitored spectrophotometrically, and this assay was used to probe for potential inhibitory effects of the CAP compounds on in vitro capsid assembly.

[5] = test system: HIV-1; experiment: Infectious units of particles from latent infected U1 cells; type: cell-based
Experimental: as §1, with “Cell lysates and pelleted particles were subjected to SDS-PAGE analysis using AIDS patient sera (AIDS Research and Reference Regent Program, NIAID, NIH).” left out, “MAGI cells were washed after viral adsorption (HIV-1RF) with PBS and were fed fresh media containing CAP-1 at various concentrations. 72 hours post-infection, the culture supernatants were harvested and pre-cleared. Virus particles present on the supernatants were collected by microcentrifugation and particle-associated RT activity and infectivity were subsequently measured.” left out

[6] = test system: HIV-1; experiment: Virus production: particle-associated RT activity and CA (p24) levels in U1 supernatants; type: cell-based; settings: U1 cells
Experimental: as §1, with “Cell lysates and pelleted particles were subjected to SDS-PAGE analysis using AIDS patient sera (AIDS Research and Reference Regent Program, NIAID, NIH).” left out, “MAGI cells were washed after viral adsorption (HIV-1RF) with PBS and were fed fresh media containing CAP-1 at various concentrations. 72 hours post-infection, the culture supernatants were harvested and pre-cleared. Virus particles present on the supernatants were collected by microcentrifugation and particle-associated RT activity and infectivity were subsequently measured.” left out

[7] = molecular target: protease (Human immunodeficiency virus type 1 group M subtype B, UniProt P04585); experiment: In vitro protease activity; type: biochemical
[8] = molecular target: T1, HIV-1 capsid protein N-terminal domain (Human immunodeficiency virus type 1 group M subtype B, UniProt P12493); experiment: 1H-15N HSQC NMR titration, binding to the apical cleft; settings: for binding to the capsid NTD, from chemical shift changes (in words): 1H-15N HSQC, FIGS. 13-14
T1 construct: DNA encoding the CA N-terminal domain (residues 1-151); made in house
Source text: DNA encoding the CA N-terminal domain (residues 1-151) was amplified from HIV-1 cDNA plasmid pNL-4-3 and an oligonucleotide encoding a C-terminal hexahistidine tag was appended to the gene. The DNA was inserted into a p11a expression vector (Novagen, Madison, Wis.), and the protein product was purified by cobalt affinity chromatography (Clontech, Palo Alto, Calif.); MWcalc=17523.0 daltons, MWobs=17523.10±0.44 daltons (electrospray Mass Spectrometry). The plasmid for the full length, native capsid protein was kindly provided by Dr. W. I. Sundquist (University of Utah, Salt Lake City, Utah), and the protein was purified as described. NMR spectra were assigned using conventional triple resonance methods. Binding isotherms from ^1H-^15N NMR HSQC titration experiments were calculated with ORIGIN 7.0 software (MicroCal, Northampton, Mass.).
To identify compounds that inhibit functions of the capsid protein, public domain chemical libraries were screened for compounds that might bind to clefts on the surface of the capsid protein and tested for binding using NMR titration spectroscopy. Screening efforts focused mainly on a β-hairpin cleft that is exposed on the surface of the N-terminal domain of the immature capsid protein but becomes occupied by residues of a β-hairpin that forms after proteolytic cleavage of Gag.
The mature N-terminal domain was titrated with N-(3-chloro-4-methylphenyl)-N′-[2-thioethyl-2′-[5-(dimethylaminomethyl)]-2-methylfuryl ]urea (CAP-1).

[9] = test system: U1 cells; experiment: Cell viability / toxicity, MTS cell proliferation assay; settings: for toxicity (in words): latent infected U1 cells
Experimental: as §1
The CAP compounds were tested for toxicity and antiviral activity using HIV-1 producing, latent infected U1 cells. This assay allows assessment of antiviral effects on late phase replication events.

[10] = molecular target: Gag (Human immunodeficiency virus type 1 group M subtype B, UniProt P12493); experiment: Mass action calculation of CAP-1 bound to CA/Gag in immature virions; design: species or system HIV-1
Experimental: This is likely due to the high local concentration of Gag molecules in assembled virions (14 mM), which favors binding by ligands with even modest affinities, e.g., N-(3-chloro-4-methylphenyl)-N′-[2-thioethyl-2′-[5-(dimethylaminomethyl)]-2-methylfuryl]urea (CAP-1). Thus conservatively assuming that cytosolic drug concentrations in the budding virus and cells are equal (100 μM), the percentage of viral CAP-1 molecules bound to CA can be estimated by standard mass action calculations which affords a value for the concentration of bound CAP-1 ([CA:CAP-1]) of 94 μM.

[11] = test system: gp120; experiment: Quantitation of gp120 in supernatant with antibodies against gp120; type: cell-based, HIV-1
Experimental: as §2

[12] = as a function of increasing CAP-1

For `Cc1ccc(NC(=O)NCCSCc2ccc(CN(C)C)o2)cc1Cl` [CAP-1, N-(3-chloro-4-methylphenyl)-N′-[2-thioethyl-2′-[5-(dimethylaminomethyl)]-2-methylfuryl]urea], the “infectious units, of the untreated levels” value ([1]; 100 μM, MAGI cells, 72 hours post-infection) was “less than 2%”, the “viral RT activity (in words)” value ([1]; MAGI cells) was “No reductions” and the “virus production after pre-incubation of MAGI cells or virus particles (in words)” value ([1]; pre-incubation with CAP-1) was “unaffected”. The “intracellular levels of Gag (p55) (in words)” value [2, 12] was “reduction”, the “levels of Gag cleavage products p24 and p41 (in words)” value [2, 12] was “remained relatively unaffected” and the “proteolytic processing of Gag (in words)” value ([2]; p24 Western, treated vs untreated) was “does not significantly affect”. The “particles with a cone-shaped core (in words)” value [3] was “none”, the “particles containing a dense, centrally located core” value ([3]; untreated 70%) was 35% and the “effect on the rate of assembly (in words)” value [4] was “diminished in a dose-dependent manner”. For the same compound, the initial assembly rate ([4]; compound:CA ratio 1:1) was 93±3 mOD/min, the initial assembly rate ([4]; compound:CA ratio 2:1) was 67±16 mOD/min and the “effect on supernatant infectivity (in words)” value [5] was “dose dependent reductions”. For the same compound, the “reduction of infectivity relative to untreated samples” value ([5]; 100 μM, 72 hours) was “ca. 95%”, the “CA (p24) levels of supernatants (in words)” value [6] was “unaffected” and the “RT activities of supernatants (in words)” value [6] was “unaffected”. For the same compound, the “in vitro protease activity (in words)” value [7] was “did not affect”, the “binding to the capsid NTD, from chemical shift changes (in words)” value [8] was “bind to the apical site of the protein” and the “cell viability (in words)” value ([9]; 100 μM, U1 cells, 72 hours) was “fully viable”. The “tolerability in cell cultures (in words)” value ([9]; cell cultures) was “particularly well-tolerated”, the “toxicity (in words)” value ([9]; 72 hours) was “non-toxic” and the “CAP-1 molecules in immature virions bound to Gag” value ([10]; 100 μM dose) was 94%. For the same compound, the “concentration of bound CAP-1 ([CA:CAP-1])” value ([10]; 100 μM drug, 14 mM Gag in assembled virions) was 94 µM and the “gp120 in supernatant, treated vs untreated (in words)” value [11] was “No differences”.
`CC(=O)Nc1ccc(NC(=O)Nc2ccc(C)c([N+](=O)[O-])c2)cc1` [CAP-2, N-(4-N-acetamidophenyl)-N′-(3-nitro-4-methylphenyl) urea] was tested, and the “effect on the rate of assembly (in words)” value [4] was “diminished in a dose-dependent manner”, the initial assembly rate ([4]; compound:CA ratio 0.5:1) was 81±2 mOD/min and the initial assembly rate ([4]; compound:CA ratio 1:1) was 39±11 mOD/min. For the same compound, the “binding to the capsid NTD, from chemical shift changes (in words)” value [8] was “bind to the apical site of the protein”, the Kd ([8]; NMR titration, 1:1 binding isotherms) was 52 ± 27 µM and the “toxicity (in words)” value ([9]; 72 hours) was “too cytotoxic”.
`Cc1ccc(NC(=O)NC(C)C)cc1[N+](=O)[O-]` [CAP-3, N-(2-propyl)-N′-(3-nitro-4-methylphenyl) urea] was tested, and the “binding to the capsid NTD, from chemical shift changes (in words)” value [8] was “very weak binding”.
For `Cc1ccc(NC(=O)Nc2ccc(C#N)cc2)cc1Cl` [CAP-4, N-(3-chloro-4-methylphenyl)-N′-(4-cyanophenyl) urea], the “binding to the capsid NTD, from chemical shift changes (in words)” value [8] was “very weak binding”.
In the case of `Cc1ccc(NC(=O)Nc2ccc(C(Cl)(Cl)Cl)cc2)cc1Cl` [CAP-5, N-(3-chloro-4-methylphenyl)-N′-[4-(1,1,1-trichloromethyl)phenyl] urea], the “binding to the capsid NTD, from chemical shift changes (in words)” value [8] is reported as “capsid binding”.
In the case of `O=C(Nc1cccc(C(F)(F)F)c1)Nc1ccc(F)c([N+](=O)[O-])c1` [CAP-6, N-(3-nitro-4-fluorophenyl)-N′-[3-(1,1,1-trifluoromethyl)phenyl] urea], the “binding to the capsid NTD, from chemical shift changes (in words)” value [8] is reported as “capsid binding”.
In the case of “N-[(3-chloro-4-methyl phenyl)-N′,N′-propyl] urea [CAP-7]”, the “binding to the capsid NTD, from chemical shift changes (in words)” value [8] is reported as “capsid binding”.
